According to ChEMBL document CHEMBL1157483, “Discovery of potent, orally active benzimidazole glucagon receptor antagonists” (Bioorg Med Chem Lett, 2008):
One block for each compound: values may come before it. Activity calls are given as the source filed them. The calls are words filed in the database; no cut-off is given here.

Legend:
Glucagon receptor [1] = biological target: T1, Glucagon receptor (Homo sapiens, UniProt P47871); assay: Displacement of [125I]glucagon from human GCGR expressed in CHO cells; type: cell-based
T1 sequence (P47871 whole entry): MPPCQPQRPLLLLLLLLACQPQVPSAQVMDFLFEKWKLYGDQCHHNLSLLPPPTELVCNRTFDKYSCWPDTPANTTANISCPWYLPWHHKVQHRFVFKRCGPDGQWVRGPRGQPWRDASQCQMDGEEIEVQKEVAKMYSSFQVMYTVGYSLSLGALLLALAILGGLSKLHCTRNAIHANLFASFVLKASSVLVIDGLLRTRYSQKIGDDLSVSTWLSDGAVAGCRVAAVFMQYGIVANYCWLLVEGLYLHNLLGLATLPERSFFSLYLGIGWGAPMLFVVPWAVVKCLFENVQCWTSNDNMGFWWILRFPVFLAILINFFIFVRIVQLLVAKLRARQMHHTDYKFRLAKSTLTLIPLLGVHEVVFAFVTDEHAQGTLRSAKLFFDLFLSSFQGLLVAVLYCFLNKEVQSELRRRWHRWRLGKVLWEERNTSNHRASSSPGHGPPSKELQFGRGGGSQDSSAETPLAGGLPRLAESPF

Glucagon receptor [2] = biological target: T1, Glucagon receptor; assay: Antagonist activity against human GCGR expressed in CHO cells assessed as glucagon-induced cAMP accumulation; type: functional, cell-based
[3] = biological target: T2, Gastric inhibitory polypeptide receptor (Homo sapiens, UniProt P48546); assay: Binding affinity against human GIP
T2 sequence (P48546 whole entry): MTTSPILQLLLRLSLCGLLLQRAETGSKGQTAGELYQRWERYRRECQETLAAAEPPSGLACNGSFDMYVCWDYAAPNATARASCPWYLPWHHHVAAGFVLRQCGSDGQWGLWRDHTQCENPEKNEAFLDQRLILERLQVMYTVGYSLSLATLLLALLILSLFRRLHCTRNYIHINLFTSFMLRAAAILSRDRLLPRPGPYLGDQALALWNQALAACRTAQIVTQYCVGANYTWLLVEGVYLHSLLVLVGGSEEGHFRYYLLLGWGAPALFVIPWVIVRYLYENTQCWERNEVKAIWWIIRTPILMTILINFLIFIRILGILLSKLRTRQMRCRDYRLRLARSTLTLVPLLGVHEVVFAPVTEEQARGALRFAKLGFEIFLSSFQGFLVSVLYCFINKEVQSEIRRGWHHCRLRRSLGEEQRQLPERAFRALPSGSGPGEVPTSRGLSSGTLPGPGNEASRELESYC

Homo sapiens [4] = species on record: Homo sapiens; assay: Selectivity for human glucagon receptor over human GIP
Homo sapiens [5] = species on record: Homo sapiens; assay: Selectivity for human glucagon receptor over human GLP1
[6] = biological target: Voltage-gated inwardly rectifying potassium channel KCNH2 (Homo sapiens, UniProt Q12809); assay: Inhibition of hERG potassium channel; type: toxicity
Sequence of Voltage-gated inwardly rectifying potassium channel KCNH2 (Q12809 whole entry): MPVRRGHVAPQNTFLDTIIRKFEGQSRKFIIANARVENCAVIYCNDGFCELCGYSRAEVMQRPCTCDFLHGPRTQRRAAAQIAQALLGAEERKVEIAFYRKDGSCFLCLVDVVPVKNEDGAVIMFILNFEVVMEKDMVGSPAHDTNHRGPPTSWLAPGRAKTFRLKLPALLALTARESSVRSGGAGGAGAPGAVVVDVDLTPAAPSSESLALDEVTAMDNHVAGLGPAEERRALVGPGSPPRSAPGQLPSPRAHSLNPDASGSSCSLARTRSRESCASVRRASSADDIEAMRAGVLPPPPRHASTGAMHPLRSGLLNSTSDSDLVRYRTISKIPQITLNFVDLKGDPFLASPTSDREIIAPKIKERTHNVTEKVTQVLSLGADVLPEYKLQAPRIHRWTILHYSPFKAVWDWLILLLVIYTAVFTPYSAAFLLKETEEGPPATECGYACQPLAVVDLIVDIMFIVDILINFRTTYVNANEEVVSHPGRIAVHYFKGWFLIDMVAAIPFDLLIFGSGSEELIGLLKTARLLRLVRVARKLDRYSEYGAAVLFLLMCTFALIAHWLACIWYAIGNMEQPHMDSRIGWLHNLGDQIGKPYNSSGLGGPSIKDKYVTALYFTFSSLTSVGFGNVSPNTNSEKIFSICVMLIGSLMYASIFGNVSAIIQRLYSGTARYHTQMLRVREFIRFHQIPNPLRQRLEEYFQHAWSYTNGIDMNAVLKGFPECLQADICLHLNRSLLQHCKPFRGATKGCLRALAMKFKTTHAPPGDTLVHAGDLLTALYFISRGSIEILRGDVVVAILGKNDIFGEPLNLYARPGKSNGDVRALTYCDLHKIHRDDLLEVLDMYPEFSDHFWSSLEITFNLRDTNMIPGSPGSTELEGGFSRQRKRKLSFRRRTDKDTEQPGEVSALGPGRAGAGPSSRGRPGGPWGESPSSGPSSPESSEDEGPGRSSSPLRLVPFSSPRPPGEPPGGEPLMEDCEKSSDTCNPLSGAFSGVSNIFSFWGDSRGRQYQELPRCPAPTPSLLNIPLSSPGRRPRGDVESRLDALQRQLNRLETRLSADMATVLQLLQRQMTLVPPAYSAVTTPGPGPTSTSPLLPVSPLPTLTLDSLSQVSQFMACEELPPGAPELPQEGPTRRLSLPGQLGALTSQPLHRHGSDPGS

Cytochrome P450 3A4 = Cytochrome P450 3A4 (Homo sapiens, UniProt P08684); assay: Inhibition of CYP3A4; type: ADME
Sequence of Cytochrome P450 3A4 (P08684 whole entry): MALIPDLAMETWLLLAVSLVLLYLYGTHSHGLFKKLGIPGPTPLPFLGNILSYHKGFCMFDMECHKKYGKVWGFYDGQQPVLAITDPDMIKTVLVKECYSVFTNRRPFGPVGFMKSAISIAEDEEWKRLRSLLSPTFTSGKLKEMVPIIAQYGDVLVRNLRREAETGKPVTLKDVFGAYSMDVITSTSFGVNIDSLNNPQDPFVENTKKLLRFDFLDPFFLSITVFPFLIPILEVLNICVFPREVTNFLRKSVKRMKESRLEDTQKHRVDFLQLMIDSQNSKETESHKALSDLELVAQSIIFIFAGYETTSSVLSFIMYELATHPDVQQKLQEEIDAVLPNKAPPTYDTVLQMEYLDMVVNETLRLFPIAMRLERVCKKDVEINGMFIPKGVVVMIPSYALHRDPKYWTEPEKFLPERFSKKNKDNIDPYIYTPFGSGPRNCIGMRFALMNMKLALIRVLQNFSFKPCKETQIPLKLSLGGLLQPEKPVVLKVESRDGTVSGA

Cytochrome P450 2C9 = Cytochrome P450 2C9 (Homo sapiens, UniProt P11712); assay: Inhibition of CYP2C9; type: ADME
Sequence of Cytochrome P450 2C9 (P11712 whole entry): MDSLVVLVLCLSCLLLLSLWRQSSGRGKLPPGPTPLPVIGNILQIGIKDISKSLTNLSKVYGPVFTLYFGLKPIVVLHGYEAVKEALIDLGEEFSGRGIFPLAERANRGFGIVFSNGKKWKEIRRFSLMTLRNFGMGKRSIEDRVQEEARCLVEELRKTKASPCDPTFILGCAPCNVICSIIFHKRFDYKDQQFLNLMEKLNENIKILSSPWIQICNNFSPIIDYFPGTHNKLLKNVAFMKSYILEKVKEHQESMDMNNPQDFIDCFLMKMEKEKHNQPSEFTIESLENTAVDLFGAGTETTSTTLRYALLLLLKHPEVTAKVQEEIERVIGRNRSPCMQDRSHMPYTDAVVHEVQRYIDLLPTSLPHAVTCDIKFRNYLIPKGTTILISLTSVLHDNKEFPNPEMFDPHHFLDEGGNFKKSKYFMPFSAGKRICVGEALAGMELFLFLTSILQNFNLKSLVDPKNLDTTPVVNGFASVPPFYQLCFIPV

Cytochrome P450 2D6 = Cytochrome P450 2D6 (Homo sapiens, UniProt P10635); assay: Inhibition of CYP2D6; type: ADME
Sequence of Cytochrome P450 2D6 (P10635 whole entry): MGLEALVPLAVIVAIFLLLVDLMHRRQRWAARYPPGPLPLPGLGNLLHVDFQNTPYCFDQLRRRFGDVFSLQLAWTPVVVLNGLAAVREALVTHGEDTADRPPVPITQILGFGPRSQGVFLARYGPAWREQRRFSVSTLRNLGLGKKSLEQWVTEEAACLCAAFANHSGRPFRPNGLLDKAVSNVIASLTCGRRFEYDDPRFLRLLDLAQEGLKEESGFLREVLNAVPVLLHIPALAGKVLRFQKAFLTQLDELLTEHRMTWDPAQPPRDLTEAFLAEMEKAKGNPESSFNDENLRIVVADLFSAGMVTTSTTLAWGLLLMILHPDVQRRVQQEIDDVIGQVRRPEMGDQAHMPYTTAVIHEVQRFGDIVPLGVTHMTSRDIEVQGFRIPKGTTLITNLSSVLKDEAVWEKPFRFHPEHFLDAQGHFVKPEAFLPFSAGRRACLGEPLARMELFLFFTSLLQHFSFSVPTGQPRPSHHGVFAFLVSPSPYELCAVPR

Mus musculus [7] = assay: Inhibition of glucagon-dependent glucose excursion in transgenic mouse expressing human glucagon receptor at 3 to 30 mg/kg, po; type: functional, organism-based
[8] = Clearance in mouse at 1 mg/kg, iv and 2 mg/kg, po; type: ADME, organism-based; conditions: in vivo
[9] = Volume of distribution at steady state in mouse at 1 mg/kg, iv and 2 mg/kg, po; type: ADME, organism-based; conditions: in vivo, read-out: Vdss
[10] = Half life in mouse at 1 mg/kg, iv and 2 mg/kg, po; type: ADME, organism-based; conditions: in vivo
[11] = Oral bioavailability in mouse at 2 mg/kg; type: ADME, organism-based; conditions: in vivo
[12] = Clearance in rat at 1 mg/kg, iv and 2 mg/kg, po; type: ADME, organism-based; conditions: in vivo
[13] = Volume of distribution at steady state in rat at 1 mg/kg, iv and 2 mg/kg, po; type: ADME, organism-based; conditions: in vivo, read-out: Vdss
[14] = Half life in rat at 1 mg/kg, iv and 2 mg/kg, po; type: ADME, organism-based; conditions: in vivo
[15] = Oral bioavailability in rat at 2 mg/kg; type: ADME, organism-based; conditions: in vivo
[16] = Clearance in dog at 0.25 mg/kg, iv and 1 mg/kg, po; type: ADME, organism-based, Canis lupus familiaris; conditions: in vivo
[17] = Volume of distribution at steady state in dog at 0.25 mg/kg, iv and 1 mg/kg, po; type: ADME, organism-based, Canis lupus familiaris; conditions: in vivo, read-out: Vdss
[18] = Half life in dog at 0.25 mg/kg, iv and 1 mg/kg, po; type: ADME, organism-based, Canis lupus familiaris; conditions: in vivo
[19] = Oral bioavailability in dog at 1 mg/kg; type: ADME, organism-based, Canis lupus familiaris; conditions: in vivo
[20] = Clearance in rhesus monkey at 0.5 mg/kg, iv and 2 mg/kg, po; type: ADME, organism-based, Macaca mulatta; conditions: in vivo
[21] = Volume of distribution at steady state in rhesus monkey at 0.5 mg/kg, iv and 2 mg/kg, po; type: ADME, organism-based, Macaca mulatta; conditions: in vivo, read-out: Vdss
[22] = Half life in rhesus monkey at 0.5 mg/kg, iv and 2 mg/kg, po; type: ADME, organism-based, Macaca mulatta; conditions: in vivo
[23] = Oral bioavailability in rhesus monkey at 2 mg/kg; type: ADME, organism-based, Macaca mulatta; conditions: in vivo
[24] = Antagonist activity against rhesus monkey glucagon receptor assessed as cAMP accumulation; type: functional, Macaca mulatta
Rhesus monkey [25] = assay: Inhibition of glucagon-dependent glucose excursion in rhesus monkey at 10 mg/kg, po; type: functional, organism-based; parameters: dose 10 mg/kg; conditions: Macaca mulatta
Mus musculus [26] = assay: Reduction of glucose level in po dosed fat diet-induced diabetic mouse transgenic model expressing human glucagon receptor administered for 10 days; type: functional, organism-based
Rhesus monkey [27] = assay: Inhibition of glucagon-dependent glucose excursion in rhesus monkey at 3 mg/kg, po; type: functional, organism-based; parameters: dose 3 mg/kg; conditions: Macaca mulatta
[28] = biological target: Glucagon-like peptide 1 receptor, Homo sapiens (UniProt P43220); assay: Binding affinity against human GLP1
Sequence of Glucagon-like peptide 1 receptor, Homo sapiens (P43220 whole entry, looked up): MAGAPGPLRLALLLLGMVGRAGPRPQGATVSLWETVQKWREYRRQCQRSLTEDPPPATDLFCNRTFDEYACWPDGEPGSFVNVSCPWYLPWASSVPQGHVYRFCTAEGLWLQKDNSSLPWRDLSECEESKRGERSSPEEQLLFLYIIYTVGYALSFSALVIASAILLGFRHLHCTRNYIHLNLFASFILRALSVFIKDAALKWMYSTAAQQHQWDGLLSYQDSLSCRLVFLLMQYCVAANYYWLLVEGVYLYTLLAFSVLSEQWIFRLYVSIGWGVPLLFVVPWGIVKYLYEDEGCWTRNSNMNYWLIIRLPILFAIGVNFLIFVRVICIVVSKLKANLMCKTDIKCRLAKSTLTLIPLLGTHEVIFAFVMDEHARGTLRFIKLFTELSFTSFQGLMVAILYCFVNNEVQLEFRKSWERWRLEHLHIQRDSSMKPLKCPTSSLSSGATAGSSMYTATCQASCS

- IC50 (Glucagon receptor [1]): 4 nM
- IC50 (Glucagon receptor [2]): 213 nM
- IC50 [3]: > 1000 nM
- Selectivity ratio (Homo sapiens [4]): > 50
- Selectivity ratio (Homo sapiens [5]): > 50
SMILES: COc1ccc2nc(N(Cc3ccc(C(=O)Nc4nnn[nH]4)cc3)[C@H]3CC[C@H](C(C)(C)C)CC3)n(C)c2c1

- IC50 (Glucagon receptor [1]): 32 nM
SMILES: CC(C)(C)[C@H]1CC[C@@]2(CCN(c3ccc(OC(F)(F)F)cc3)C(=O)N2Cc2ccc(C(=O)Nc3nnn[nH]3)cc2)CC1

- IC50 (Glucagon receptor [1]): 11 nM
- IC50 (Glucagon receptor [2]): 62 nM
- IC50 [3]: 6000 nM
- Selectivity ratio (Homo sapiens [4]): > 50
- Selectivity ratio (Homo sapiens [5]): > 50
- IC50 (Cytochrome P450 3A4): > 10000 nM
- IC50 (Cytochrome P450 2C9): > 10000 nM
- IC50 (Cytochrome P450 2D6): > 10000 nM
- clearance [8]: 4 mL/min/kg
- Vd [9]: 0.33 L/kg
- half-life [10]: 1.9 h
- bioavailability [11]: 2%
- clearance [12]: 12 mL/min/kg
- Vd [13]: 0.74 L/kg
- half-life [14]: 1.6 h
- bioavailability [15]: 5%
- clearance [16]: 3.8 mL/min/kg
- Vd [17]: 0.5 L/kg
- half-life [18]: 2.1 h
- bioavailability [19]: 27%
- clearance [20]: 16 mL/min/kg
- Vd [21]: 0.8 L/kg
- half-life [22]: 2.4 h
- bioavailability [23]: 23%
- IC50 [24]: 111 nM
- Activity (Mus musculus [26]): Dose-dependent effect
- IC50 [28]: 6800 nM
SMILES: Cn1c(N(Cc2ccc(C(=O)Nc3nnn[nH]3)cc2)[C@H]2CC[C@H](C(C)(C)C)CC2)nc2cc(C(F)(F)F)ccc21
- IC50 [6]: > 10000 nM
- Activity (Mus musculus [7]): Active
- Activity (Rhesus monkey [25]): Active
- Activity (Rhesus monkey [27]): Active

- IC50 (Glucagon receptor [1]): 1 nM
- IC50 (Glucagon receptor [2]): 8 nM
- IC50 [3]: 4900 nM
- Selectivity ratio (Homo sapiens [4]): > 50
- Selectivity ratio (Homo sapiens [5]): > 50
- IC50 [28]: 5000 nM
SMILES: CCCOc1ccc2nc(N(Cc3ccc(C(=O)Nc4nnn[nH]4)cc3)[C@H]3CC[C@H](C(C)(C)C)CC3)n(C)c2c1

- IC50 (Glucagon receptor [1]): 2 nM
- IC50 (Glucagon receptor [2]): > 1000 nM
- IC50 [3]: > 1000 nM
- Selectivity ratio (Homo sapiens [4]): > 50
- Selectivity ratio (Homo sapiens [5]): > 50
SMILES: Cn1c(N(Cc2ccc(C(=O)Nc3nnn[nH]3)cc2)[C@H]2CC[C@H](C(C)(C)C)CC2)nc2cc(O)ccc21

- IC50 (Glucagon receptor [1]): 2 nM
- IC50 (Glucagon receptor [2]): 22 nM
- IC50 [3]: 2800 nM
- Selectivity ratio (Homo sapiens [4]): > 50
- Selectivity ratio (Homo sapiens [5]): > 50
- IC50 [28]: 7600 nM
SMILES: CCOc1ccc2c(c1)nc(N(Cc1ccc(C(=O)Nc3nnn[nH]3)cc1)[C@H]1CC[C@H](C(C)(C)C)CC1)n2C

- IC50 (Glucagon receptor [1]): 13 nM
- IC50 (Glucagon receptor [2]): > 1000 nM
SMILES: Cc1ccc2[nH]c(N(Cc3ccc(C(=O)Nc4nnn[nH]4)cc3)c3ccc(Oc4ccc(Cl)cc4)c(Cl)c3)nc2c1

- IC50 (Glucagon receptor [1]): 10 nM
- IC50 (Glucagon receptor [2]): > 1000 nM
SMILES: Cc1ccc2[nH]c(N(Cc3ccc(C(=O)Nc4nnn[nH]4)cc3)[C@H]3CC[C@H](C(C)(C)C)CC3)nc2c1

- IC50 (Glucagon receptor [1]): 31 nM
- IC50 (Glucagon receptor [2]): 810 nM
SMILES: Cn1c(N(Cc2ccc(C(=O)Nc3nnn[nH]3)cc2)c2ccc(C(C)(C)C)cc2)nc2ccccc21

- IC50 (Glucagon receptor [1]): 1 nM
- IC50 (Glucagon receptor [2]): 9 nM
- IC50 [3]: 2000 nM
- Selectivity ratio (Homo sapiens [4]): > 50
- Selectivity ratio (Homo sapiens [5]): > 50
- clearance [8]: 10 mL/min/kg
- Vd [9]: 0.5 L/kg
- half-life [10]: 3.2 h
- bioavailability [11]: 2%
- clearance [12]: 13 mL/min/kg
- Vd [13]: 0.6 L/kg
- half-life [14]: 2.9 h
- bioavailability [15]: 5%
- IC50 [28]: 5000 nM
SMILES: Cn1c(N(Cc2ccc(C(=O)Nc3nnn[nH]3)cc2)[C@H]2CC[C@H](C(C)(C)C)CC2)nc2cc(OC3CCCC3)ccc21

- IC50 (Glucagon receptor [1]): 24 nM
SMILES: CCCn1c(N(Cc2ccc(C(=O)Nc3nnn[nH]3)cc2)[C@H]2CC[C@H](C(C)(C)C)CC2)nc2ccccc21

- IC50 (Glucagon receptor [1]): 4 nM
- IC50 (Glucagon receptor [2]): 38 nM
- IC50 [3]: 2500 nM
- Selectivity ratio (Homo sapiens [4]): > 50
- Selectivity ratio (Homo sapiens [5]): > 50
- IC50 [28]: 5900 nM
SMILES: COc1ccc2c(c1)nc(N(Cc1ccc(C(=O)Nc3nnn[nH]3)cc1)[C@H]1CC[C@H](C(C)(C)C)CC1)n2C

- IC50 (Glucagon receptor [1]): 6 nM
- IC50 (Glucagon receptor [2]): 18 nM
- IC50 [3]: > 10000 nM
- Selectivity ratio (Homo sapiens [4]): > 50
- Selectivity ratio (Homo sapiens [5]): > 50
SMILES: Cc1cc2nc(N(Cc3ccc(C(=O)Nc4nnn[nH]4)cc3)[C@H]3CC[C@H](C(C)(C)C)CC3)n(C)c2cc1C
